Assay results: US20110071124A1, “Compounds that Inhibit Production of sAPPB and AB and Uses Thereof” (The Trustees of Columbia University in the City of New York, priority 2008, published 2011)

Tested on: brain total Aβ40
Assay: brain total Aβ40 in Tg2576 mice after intraperitoneal injection
Format: in vivo
Details: 3 mg/kg intraperitoneal, 1 injection per day for 9 days, 12- to 13-month old Tg2576 mice; p value greater than 0.05
Protocol: FIG. 18. CNS-2 reduces brain total Aβ40 in Tg2576 mice. CNS-2 was dissolved in 0.9% normal saline solution with 1.9% DMSO. 12 month old Tg2576 APPsw transgenic mice were treated with 3 mg/kg CNS-2 via intraperitoneal injection at an injection volume of 20 μl per gram. 8 mice per group were treated for 9 days, 1 injection per day. Mice were sacrificed on day 9, 5 hours after the final injection. One hemisphere from each mouse was homogenized, and the homogenate was processed for formic acid extraction of plaque Aβ. After formic acid extraction, total Aβ40 was measured via ELISA kit (BioSource) and normalized to total protein.
A total of 16 mice were treated with either DMSO (n=8) or 3 mg/kg CNS-2 (n=8). The dosage was selected arbitrarily based on compound solubility in 0.9% normal saline. CNS-2 was dissolved in 0.9% normal saline solution with 1.9% final DMSO concentration. 12- to 13-month old Tg2576 mice were treated with DMSO or CNS-2 via intraperitoneal injection for 9 days (1 injection per day) at an injection volume of 20 μl per gram of weight. Mouse weight was monitored daily, and the total injection volume adjusted accordingly over the course of the 9-day treatment. […] Mice were sacrificed on day 9, 5 hours after the final injection. […] Total Aβ40 was determined by Aβ ELISA kit and normalized to total protein (FIG. 18).

`O=C(CCc1ccccc1)NC[C@@H]1CCCN1CCOC(c1ccc(F)cc1)c1ccc(F)cc1` [CNS-2] was tested. Which “reduction of brain total Aβ40” value did it give?
The value was 30%.
